Columns and labels:
[1] = biological target: Estrogen receptor (Rattus norvegicus) (UniProt P06211+Q62986); test: Estrogenic activity in uterotrophic assay in rats on oral administration relative to diethylstilbestrol; assay type: functional, organism-based
[2] = species: Rattus norvegicus; test: Effective dose for antifertility activity in rats; assay type: functional

Potency [1]: 16%
Compound: Oc1ccc2c(c1)CCC1C2C2CCc3cc(O)ccc3C12 (configuration not stated)
ED100 [2]: 100 µg/day/kg

Source: ChEMBL document CHEMBL1121373, “Synthesis and antifertility activity of 3,9-dihydroxy-5,6,6a alpha,6b beta,11,12,12a beta,12b alpha-octahydrodibenzo[a,g]biphenylene, a structural relative of diethylstilbestrol” (1980)
